Data on twelve compounds can be found in US8912206B2, “Pyrimidine ether derivatives and methods of use thereof” (Merck Sharp & Dohme Corp., priority 2009, dated 2014).

Broadly, the EC50 is the concentration needed to bring the measured effect to its halfway point.

The test concerns the target T1, human GPR119 (Homo sapiens, UniProt Q8TDV5).
T1 construct: expressed in transfected cells; host or cells: HEK293
T1 sequence (Q8TDV5 1-335): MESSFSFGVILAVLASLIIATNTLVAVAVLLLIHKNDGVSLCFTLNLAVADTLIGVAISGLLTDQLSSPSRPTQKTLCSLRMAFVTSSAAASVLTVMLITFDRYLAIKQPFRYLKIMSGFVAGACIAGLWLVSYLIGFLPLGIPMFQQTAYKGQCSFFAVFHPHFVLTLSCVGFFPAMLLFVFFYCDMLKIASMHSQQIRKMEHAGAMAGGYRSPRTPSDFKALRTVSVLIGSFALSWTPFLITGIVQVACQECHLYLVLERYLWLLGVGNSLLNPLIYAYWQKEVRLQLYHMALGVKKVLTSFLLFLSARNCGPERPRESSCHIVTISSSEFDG
The test is described as follows: cAMP assay (LANCE cAMP kit), activation of GPR119. The format is cell-based. Particulars: HEK293 cells expressing human GPR119, 30 minutes incubation. As for the experimental part: The ability of illustrative compounds of the invention to activate GPR119 and stimulate increases in cAMP levels was determined using the LANCE™ cAMP kit (Perkin Elmer). HEK293 cells expressing human GPR119 were maintained in culture flasks at 37° C./5% CO2 in DMEM containing 10% fetal bovine serum, 100 U/ml Pen/Strep, and 0.5 mg/ml geneticin. The media was changed to Optimem and cells were incubated for about 15 hours at 37° C./5% CO2. The Optimem was then aspirated and the cells were removed from the flasks using room temperature Hank's balanced saline solution (HBSS). The cells were pelleted using centrifugation (1300 rpm, 7 minutes, room temperature), then resuspended in stimulation buffer (HBSS, 0.1% BSA, 5 mM HEPES, 15 μM RO-20) at 2.5×10^6 cells/mL. Alexa Fluor 647-anti cAMP antibody (1:100) was then added to the cell suspension and incubated for 30 minutes. A representative Pyrimidine Ether Derivative (6 μl at 2× concentration) in stimulation buffer containing 2% DMSO were then added to white 384 well Matrix plates. Cell suspension mix (6 μl) was added to each well and incubated with the Pyrimidine Ether Derivative for 30 minutes. A cAMP standard curve was also created in each assay according to the kit protocol. Standard concentrations of cAMP in stimulation buffer (6 μl) were added to white 384 well plates. Subsequently, 6 μl of 1:100 anti-cAMP antibody was added to each well. Following the 30 minute incubation period, 12 μl of detection mix (included in kit) was added to all wells and incubated for 2-3 hours at room temperature. Fluorescence was detected on the plates using an Envision instrument. The level of cAMP in each well is determined by extrapolation from the cAMP standard curve.
(Changes in cAMP serve as a functional read-out for many G protein-coupled receptors.)
Compound `CC(C)C(=O)N1CCC(Oc2ncnc(OC3C4COCC3CN(C(=O)OC3(C)CC3)C4)c2F)CC1` (stereo not drawn) [Compound 9] gave an EC50 of 500 to 1000 nM.
On to `CC(C)S(=O)(=O)N1CCC(Oc2ncnc(OC3C4COCC3CN(C(=O)OC3(C)CC3)C4)c2F)CC1` (stereo not drawn) [Compound 5], for which the EC50 was < 100 nM.
Take `CS(=O)(=O)N1CCC(Oc2ncnc(OC3C4COCC3CN(c3ncc(Cl)cn3)C4)c2F)CC1` (stereo not drawn) [Compound 10]: the EC50 is < 100 nM.
As to `CC1(OC(=O)N2CC3COCC(C2)C3Oc2ncnc(OC3CCN(S(=O)(=O)C4CC4)CC3)c2F)CC1` (stereo not drawn) [Compound 4], the EC50 fell in the range of 100 to 200 nM.
`CCS(=O)(=O)N1CCC(Oc2ncnc(OC3C4COCC3CN(C(=O)OC3(C)CC3)C4)c2F)CC1` (stereo not drawn) [Compound 12]: the EC50 is < 100 nM.
With `COCCS(=O)(=O)N1CCC(Oc2ncnc(OC3C4COCC3CN(C(=O)OC3(C)CC3)C4)c2F)CC1` (stereo not drawn) [Compound 8], the EC50 fell in the range of 100 to 200 nM.
Compound `CC1(OC(=O)N2CC3COCC(C2)C3Oc2ncnc(OC3CCN(S(=O)(=O)C(F)(F)F)CC3)c2F)CC1` (stereo not drawn) [Compound 6] displayed an EC50 of 500 to 1000 nM.
The value for `CC(C)(C)OC(=O)N1CCC(Oc2ncnc(OC3C4COCC3CN(C(=O)OC3(C)CC3)C4)c2F)CC1` (stereo not drawn) [Compound 1] was 500 to 1000 nM; that for `CC1(OC(=O)N2CC3COCC(C2)C3Oc2ncnc(OC3CCN(S(=O)(=O)CCC(F)(F)F)CC3)c2F)CC1` (stereo not drawn) [Compound 3] was < 100 nM; that for `CC1(OC(=O)N2CC3COCC(C2)C3Oc2ncnc(OC3CCN(S(C)(=O)=O)CC3)c2F)CC1` (stereo not drawn) [Compound 2] was 100 to 200 nM.
`CC1(OC(=O)N2CC3COCC(C2)C3Oc2ncnc(OC3CCN(S(=O)(=O)C4CCCC4)CC3)c2F)CC1` (stereo not drawn) [Compound 7] showed an EC50 of 100 to 200 nM.
As to `CCCS(=O)(=O)N1CCC(Oc2ncnc(OC3C4COCC3CN(C(=O)OC3(C)CC3)C4)c2F)CC1` (stereo not drawn) [Compound 11], the 50% effective concentration (EC50) was < 100 nM.
